The record followed here is patent US11926642B2, “Compounds and methods for the treatment of COVID-19” (priority 2020, dated 2024).

One data set deals with OATP1B3 (Homo sapiens, UniProt Q9NPD5).
The target in another data set is FIPV-CoV-2 3CLpro (Feline coronavirus, UniProt Q98VG9). Briefly: 3CLpro FRET protease activity assay, FIPV-CoV-2. The format is biochemical.
The target in the next data set is HKU9-CoV 3CLpro (Bat coronavirus HKU9, UniProt P0C6W5). The data set is classed as biochemical.
Chain of HKU9-CoV 3CLpro (P0C6W5 3104-3409 limits assumed): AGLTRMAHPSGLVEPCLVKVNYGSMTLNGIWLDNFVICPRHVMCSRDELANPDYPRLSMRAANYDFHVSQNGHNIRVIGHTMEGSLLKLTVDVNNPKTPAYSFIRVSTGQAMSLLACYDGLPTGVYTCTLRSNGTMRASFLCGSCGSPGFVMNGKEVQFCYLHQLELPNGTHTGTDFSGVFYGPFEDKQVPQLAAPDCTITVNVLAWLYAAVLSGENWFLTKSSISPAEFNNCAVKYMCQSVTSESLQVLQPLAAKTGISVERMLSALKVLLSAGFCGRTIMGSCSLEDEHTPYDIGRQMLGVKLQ
The nature of another data set: in vivo. Particulars: rat, po, 2 mg/kg.
Another data set deals with HIV-1 protease (Human immunodeficiency virus type 1 group M subtype B, UniProt P04585). Briefly: biochemical.
Another data set concerns the target CYP2D6 (Homo sapiens, UniProt P10635). Briefly: biochemical.
For another data set, the target named is HKU4-CoV 3CLpro (Bat coronavirus HKU4, UniProt P0C6W3). The format is biochemical.
Chain of HKU4-CoV 3CLpro (P0C6W3 3292-3597 limits assumed): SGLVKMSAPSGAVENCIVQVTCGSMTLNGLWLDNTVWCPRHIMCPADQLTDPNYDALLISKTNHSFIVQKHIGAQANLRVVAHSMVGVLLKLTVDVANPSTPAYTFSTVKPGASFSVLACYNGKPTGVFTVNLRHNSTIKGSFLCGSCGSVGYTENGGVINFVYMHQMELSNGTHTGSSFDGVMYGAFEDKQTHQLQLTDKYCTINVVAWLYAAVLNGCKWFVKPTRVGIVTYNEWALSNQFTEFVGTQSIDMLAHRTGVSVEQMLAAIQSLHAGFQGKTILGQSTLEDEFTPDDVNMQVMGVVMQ
A short description of another data set: in vitro. The settings on record: human.
For data set [1] the following is noted: continuous IV infusion, 4 days, male rats.
A further data set addresses Pgp (Homo sapiens, UniProt P08183).
In a further data set the target is CYP2C8 (Homo sapiens, UniProt P10632). Briefly: biochemical.
Chain of CYP2C8 (P10632 whole entry): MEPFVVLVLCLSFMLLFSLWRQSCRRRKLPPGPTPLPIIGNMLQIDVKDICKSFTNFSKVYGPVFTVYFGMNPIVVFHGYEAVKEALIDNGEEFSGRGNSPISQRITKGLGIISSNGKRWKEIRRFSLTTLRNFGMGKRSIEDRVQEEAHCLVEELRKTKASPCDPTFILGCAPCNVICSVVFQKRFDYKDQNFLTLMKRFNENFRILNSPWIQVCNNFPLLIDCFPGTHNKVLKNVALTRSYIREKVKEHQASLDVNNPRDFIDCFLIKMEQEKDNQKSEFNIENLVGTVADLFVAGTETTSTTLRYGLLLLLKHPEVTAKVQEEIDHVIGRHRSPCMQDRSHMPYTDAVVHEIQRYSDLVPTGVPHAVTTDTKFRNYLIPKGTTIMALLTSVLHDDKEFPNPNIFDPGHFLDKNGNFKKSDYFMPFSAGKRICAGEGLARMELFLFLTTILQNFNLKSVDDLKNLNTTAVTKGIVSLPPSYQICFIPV
The conditions of data set [2]: in vitro.
Data set [3] has as its system SARS2 BetaCov GHB-03021/2020. Briefly: microbe, parasite or virus in culture. The format is cell-based, SARS-CoV-2. Particulars: Severe acute respiratory syndrome coronavirus 2; in the presence of the P-gp inhibitor.

Each structure is given as a SMILES string. Where only a bound is given, the exact number is not on record here.

Chain of OATP1B3 (Q9NPD5 whole entry): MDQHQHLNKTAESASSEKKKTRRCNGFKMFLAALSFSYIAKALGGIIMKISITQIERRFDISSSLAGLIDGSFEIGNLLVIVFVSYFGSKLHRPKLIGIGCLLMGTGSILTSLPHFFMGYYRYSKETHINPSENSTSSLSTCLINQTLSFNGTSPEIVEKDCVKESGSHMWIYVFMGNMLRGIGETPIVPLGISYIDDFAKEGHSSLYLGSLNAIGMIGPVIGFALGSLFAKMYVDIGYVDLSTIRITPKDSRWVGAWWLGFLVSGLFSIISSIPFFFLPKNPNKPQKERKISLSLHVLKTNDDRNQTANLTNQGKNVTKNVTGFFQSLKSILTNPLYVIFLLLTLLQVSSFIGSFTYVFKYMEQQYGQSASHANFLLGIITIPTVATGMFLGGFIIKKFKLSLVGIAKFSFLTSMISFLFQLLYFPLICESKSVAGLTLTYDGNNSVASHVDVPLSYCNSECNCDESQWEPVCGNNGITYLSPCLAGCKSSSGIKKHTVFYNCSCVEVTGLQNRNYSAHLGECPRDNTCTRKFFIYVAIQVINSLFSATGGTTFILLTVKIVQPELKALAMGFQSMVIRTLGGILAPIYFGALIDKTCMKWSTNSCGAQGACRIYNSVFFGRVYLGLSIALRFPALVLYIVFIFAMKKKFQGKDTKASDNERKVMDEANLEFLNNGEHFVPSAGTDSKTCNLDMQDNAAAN
Chain of CYP2D6 (P10635 whole entry): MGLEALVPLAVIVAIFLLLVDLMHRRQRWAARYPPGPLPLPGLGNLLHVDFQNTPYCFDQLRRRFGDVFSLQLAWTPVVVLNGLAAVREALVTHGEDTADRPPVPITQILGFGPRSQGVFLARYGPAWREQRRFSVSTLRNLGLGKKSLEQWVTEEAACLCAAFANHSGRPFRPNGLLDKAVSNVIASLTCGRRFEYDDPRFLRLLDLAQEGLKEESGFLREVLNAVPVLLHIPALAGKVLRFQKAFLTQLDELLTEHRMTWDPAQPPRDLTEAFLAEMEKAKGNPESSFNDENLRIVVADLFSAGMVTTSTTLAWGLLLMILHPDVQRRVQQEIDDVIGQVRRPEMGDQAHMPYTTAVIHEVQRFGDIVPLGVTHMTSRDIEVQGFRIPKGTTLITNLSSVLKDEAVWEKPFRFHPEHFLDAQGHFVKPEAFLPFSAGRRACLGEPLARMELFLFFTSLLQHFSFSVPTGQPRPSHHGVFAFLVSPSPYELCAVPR
Chain of FIPV-CoV-2 3CLpro (Q98VG9 2904-3205): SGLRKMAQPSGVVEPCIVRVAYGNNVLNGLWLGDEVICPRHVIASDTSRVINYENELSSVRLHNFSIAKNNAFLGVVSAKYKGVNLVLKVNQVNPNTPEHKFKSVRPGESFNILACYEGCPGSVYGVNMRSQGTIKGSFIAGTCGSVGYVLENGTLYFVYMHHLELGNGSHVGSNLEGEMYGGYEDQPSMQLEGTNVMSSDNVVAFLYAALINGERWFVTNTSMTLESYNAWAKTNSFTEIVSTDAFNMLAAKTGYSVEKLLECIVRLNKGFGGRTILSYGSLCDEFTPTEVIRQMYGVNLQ
Chain of Pgp (P08183 whole entry): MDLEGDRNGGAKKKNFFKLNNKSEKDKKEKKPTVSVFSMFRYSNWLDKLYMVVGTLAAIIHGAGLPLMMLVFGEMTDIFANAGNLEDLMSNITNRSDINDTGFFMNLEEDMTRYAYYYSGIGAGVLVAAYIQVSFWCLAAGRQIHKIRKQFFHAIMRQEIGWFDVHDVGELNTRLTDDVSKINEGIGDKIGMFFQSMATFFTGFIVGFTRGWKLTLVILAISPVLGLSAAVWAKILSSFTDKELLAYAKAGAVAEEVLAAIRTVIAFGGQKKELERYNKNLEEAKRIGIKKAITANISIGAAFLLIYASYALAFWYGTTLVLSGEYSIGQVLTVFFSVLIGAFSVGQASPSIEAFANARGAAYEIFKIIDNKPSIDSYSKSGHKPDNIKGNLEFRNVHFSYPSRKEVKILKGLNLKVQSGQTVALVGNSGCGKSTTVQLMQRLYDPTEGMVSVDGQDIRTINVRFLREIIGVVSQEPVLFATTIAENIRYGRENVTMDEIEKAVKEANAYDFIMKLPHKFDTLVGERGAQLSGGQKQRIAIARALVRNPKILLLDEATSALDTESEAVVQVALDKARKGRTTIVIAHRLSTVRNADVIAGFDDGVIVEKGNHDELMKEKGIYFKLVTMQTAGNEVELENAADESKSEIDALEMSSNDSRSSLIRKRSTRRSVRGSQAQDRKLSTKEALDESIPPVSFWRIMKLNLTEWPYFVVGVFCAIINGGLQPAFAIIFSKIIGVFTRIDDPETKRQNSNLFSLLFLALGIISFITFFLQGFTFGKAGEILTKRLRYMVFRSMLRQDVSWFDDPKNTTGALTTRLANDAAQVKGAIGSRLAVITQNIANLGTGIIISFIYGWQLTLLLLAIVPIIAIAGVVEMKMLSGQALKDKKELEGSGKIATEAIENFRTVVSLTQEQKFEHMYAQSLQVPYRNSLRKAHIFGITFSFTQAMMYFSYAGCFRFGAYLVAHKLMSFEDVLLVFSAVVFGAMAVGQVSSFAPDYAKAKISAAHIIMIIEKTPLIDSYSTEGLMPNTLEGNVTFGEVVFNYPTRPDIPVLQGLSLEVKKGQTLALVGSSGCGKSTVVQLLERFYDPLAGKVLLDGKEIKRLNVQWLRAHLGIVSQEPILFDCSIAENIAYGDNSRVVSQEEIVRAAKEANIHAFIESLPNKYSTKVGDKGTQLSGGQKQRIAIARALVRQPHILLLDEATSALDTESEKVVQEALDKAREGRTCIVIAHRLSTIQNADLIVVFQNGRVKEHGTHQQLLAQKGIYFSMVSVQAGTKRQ

As to `COc1cccc2[nH]c(C(=O)N[C@@H](CC(C)C)C(=O)N[C@@H](C[C@@H]3CCNC3=O)C(=O)CO)cc12` [parent compound, N-((1S)-1-{[((1S)-3-hydroxy-2-oxo-1-{[(3S)-2-oxopyrrolidin-3-yl]methyl}propyl)amino]carbonyl}-3-methylbutyl)-4-methoxy-1H-indole-2-carboxamide], the IC50 was greater than 20 µM at OATP1B3; greater than 11.1 µM against HIV-1 protease; greater than 200 µM at CYP2D6; greater than 20 µM on Pgp; greater than 200 µM against CYP2C8. The inhibition constant Ki at FIPV-CoV-2 3CLpro came out at 0.0001 ± 0.0001 µM; at HKU9-CoV 3CLpro, 0.0008 ± 0.0006 µM; on HKU4-CoV 3CLpro it was 30 ± 80 pM. In the data set “in vivo”, this molecule had a bioavailability of less than 2%. The “time dependent inhibition of CYP3A4/5” value in the data set on CYP3A4/5 is reported as “weak signal”. In the data set “in vitro”, this molecule registered a CC50 greater than 10 µM. Moreover, the compound-related findings result in data set [1] was “minimal, non-adverse effects on clinical chemistry parameters”. Moreover, the “tolerated dose, highest feasible dose tested” value in data set [1] is 246 mg/kg/day. Besides, the micronuclei formation entry in [2] is recorded as “did not induce micronuclei formation”. The EC90 in data set [3] was 1.6 µM.
